{"source": "patent US6335355B1", "about": "“Crop protection products” (Syngenta Investment Corporation, priority 1995, dated 2002)", "key": {"Cercospora nicotianae": {"system": "Cercospora nicotianae", "test": "Action against Cercospora nicotianae on tobacco plants", "type": "in vivo"}, "[1]": {"system": "Colletotrichum lagenarium", "test": "Action against Colletotrichum lagenarium on Cucumis sativus L./foliar application", "type": "in vivo"}, "Pyricularia oryzae": {"system": "Pyricularia oryzae", "type": "in vivo", "conditions": "Example B11"}, "Erysiphe graminis": {"system": "Erysiphe graminis", "test": "Action against Erysiphe graminis on barley", "description": "A1: Action gainst Erysiphe graminis on Barley\na) Residual-protective Action Barley plants about 8 cm in height are sprayed to drip point with an aqueous spray mixture (max. 0.02% active ingredient) and are dusted 3 to 4 days later with conidia of the fungus. The infected plants are stood in a greenhouse at 22°. Fungus infestation is generally evaluated 10 days after infection.\nb) Systemic Action Barley plants about 8 cm in height are watered with an aqueous spray mixture (max. 0.002% active ingredient, based on the volume of the soil). […] The plants are dusted with conidia of the fungus 3 to 4 days later. The infected plants are stood in a greenhouse at 22°. Fungus infestation is generally evaluated 10 days after infection."}, "[2]": {"system": "Colletotrichum lagenarium", "test": "Action against Colletotrichum lagenarium on Cucumis sativus L./soil application", "type": "in vivo"}, "[3]": {"test": "Field test on chilli: action on crop yield", "type": "in vivo", "conditions": "Example B10, chillis harvested after the sixth spraying"}, "[4]": {"system": "Cercospora sp. (leaf spot)", "test": "Field test on chilli: action against Cercospora sp. (leaf spot)", "excerpt": "In a plot of land about 10 m^2 (test location: Cikampek, Java, Indonesia), chilli plants are sprayed a total of 7 times at intervals of about 7 days with 500-700 litres of spray mixture per hectare. Three days after the first spraying, the plants are infected artificially with the fungus.\nEvaluation is made by assessing infestation on the leaves after the sixth spraying."}, "[5]": {"conditions": "Example B5, 2 mg a.i. per liter (ppm)"}, "[6]": {"conditions": "Example B5, 6 mg a.i. per liter (ppm)"}, "[7]": {"conditions": "Example B1, 0.6 mg a.i. per liter (ppm)"}, "[8]": {"conditions": "Example B1, 2 mg a.i. per liter (ppm)"}, "[9]": {"conditions": "Example B1, 6 mg a.i. per liter (ppm)"}, "[10]": {"conditions": "Example B3(b), 0.2 mg a.i. per liter (ppm)"}, "[11]": {"conditions": "Example B9(b), 0.02 mg a.i. per liter (ppm)"}, "[12]": {"conditions": "Example B9(b), 0.06 mg a.i. per liter (ppm)"}, "[13]": {"conditions": "Example B3(a), 0.06 mg a.i. per liter (ppm)"}, "[14]": {"conditions": "Example B3(a), 0.2 mg a.i. per liter (ppm)"}, "[15]": {"conditions": "Example B9(a), 6 mg a.i. per liter (ppm)"}, "[16]": {"conditions": "Example B7, 2 mg a.i. per liter (ppm)"}, "[17]": {"conditions": "Example B7, 6 mg a.i. per liter (ppm)"}}, "note": "Where two headings read alike, the source gives them in different places.", "data": [{"compound": "CC(C)(C)C(O)(CCc1ccc(Cl)cc1)Cn1cncn1", "note": "(stereo not drawn) [compound IIA, α-[2-(4-chlorophenyl)ethyl]-α-(1,1-dimethylethyl)-1H-1,2,4-trazole-1-ethanol]", "values": [{"measurement": "% action O (found)", "setting": "Cercospora nicotianae; [5]", "value": 0, "unit": "%"}, {"measurement": "% action O (found)", "setting": "Cercospora nicotianae; [6]", "value": 0, "unit": "%"}]}, {"compound": "CO/N=C(/C(=O)OC)c1ccccc1COc1ccccc1C", "note": "[compound IIG, methyl-(E)-2-methoximino-2-[α-(o-tolyloxy)-o-tolyl]acetate]", "values": [{"measurement": "% action O (found)", "setting": "[1]; Example B4, 2 mg a.i. per liter (ppm)", "value": 0, "unit": "%"}, {"measurement": "% action O (found)", "setting": "[1]; Example B4, 20 mg a.i. per liter (ppm)", "value": 41, "unit": "%"}]}, {"compound": "CCC1(C(=O)NC(C)c2ccc(Cl)cc2)C(C)C1(Cl)Cl", "note": "[compound IIK, (1R,3S/1S,3R)-2,2-dichloro-N-[(R)-1-(4-chlorophenyl)ethyl]-1-ethyl-3-methylcyclo-propanecarboxamide]", "values": [{"measurement": "% action O (found)", "setting": "Pyricularia oryzae; 0.02 mg a.i. per liter (ppm)", "value": 0, "unit": "%"}, {"measurement": "% action O (found)", "setting": "Pyricularia oryzae; 0.06 mg a.i. per liter (ppm)", "value": 28, "unit": "%"}, {"measurement": "% action O (found)", "setting": "Pyricularia oryzae; 0.2 mg a.i. per liter (ppm)", "value": 47, "unit": "%"}, {"measurement": "% action O (found)", "setting": "Pyricularia oryzae; 0.6 mg a.i. per liter (ppm)", "value": 79, "unit": "%"}, {"measurement": "% action O (found)", "setting": "Pyricularia oryzae; 2 mg a.i. per liter (ppm)", "value": 83, "unit": "%"}, {"measurement": "% action O (found)", "setting": "Pyricularia oryzae; 6 mg a.i. per liter (ppm)", "value": 91, "unit": "%"}]}, {"compound": "CC1(C)CCC(Cc2ccc(Cl)cc2)C1(O)Cn1cncn1", "note": "(stereo not shown) [compound IID, 5-(4-chlorobenzyl)-2,2-dimethyl-1-(1H-1,2,4-triazol-1-ylmethyl)-cyclopentanol]", "values": [{"measurement": "% action O (found)", "setting": "Erysiphe graminis; [7]", "value": 10, "unit": "%"}, {"measurement": "% action O (found)", "setting": "Erysiphe graminis; [8]", "value": 40, "unit": "%"}, {"measurement": "% action O (found)", "setting": "Erysiphe graminis; [9]", "value": 51, "unit": "%"}, {"measurement": "% action O (found)", "setting": "Erysiphe graminis; Example B1, 20 mg a.i. per liter (ppm)", "value": 65, "unit": "%"}]}, {"compound": "CO/C=C(/C(=O)OC)c1ccccc1Oc1cc(Oc2ccccc2C#N)ncn1", "note": "[compound IIF, methyl-(E)-2-{2-[6-(2-cyanophenoxy)pyrimidin4-yloxy]phenyl}-3-methoxyacrylate]", "values": [{"measurement": "% action O (found)", "setting": "[2]; [10]", "value": 0, "unit": "%"}, {"measurement": "% action O (found)", "setting": "[2]; Example B3(b), 0.6 mg a.i. per liter (ppm)", "value": 9, "unit": "%"}, {"measurement": "% action O (found)", "setting": "[2]; Example B3(b), 2 mg a.i. per liter (ppm)", "value": 28, "unit": "%"}, {"measurement": "% action O (found)", "setting": "[2]; Example B3(b), 6 mg a.i. per liter (ppm)", "value": 66, "unit": "%"}, {"measurement": "% action O (found)", "setting": "[2]; [11]", "value": 1, "unit": "%"}, {"measurement": "% action O (found)", "setting": "[2]; [12]", "value": 5, "unit": "%"}, {"measurement": "% action O (found)", "setting": "[2]; Example B9(b), 0.6 mg a.i. per liter (ppm)", "value": 27, "unit": "%"}, {"measurement": "% action O (found)", "setting": "[2]; Example B9(b), 2 mg a.i. per liter (ppm)", "value": 61, "unit": "%"}, {"measurement": "% action O (found)", "setting": "[2]; Example B9(b), 6 mg a.i. per liter (ppm)", "value": 93, "unit": "%"}, {"measurement": "% action O (found)", "setting": "[1]; [13]", "value": 5, "unit": "%"}, {"measurement": "% action O (found)", "setting": "[1]; [14]", "value": 9, "unit": "%"}, {"measurement": "% action O (found)", "setting": "[1]; Example B3(a), 0.6 mg a.i. per liter (ppm)", "value": 12, "unit": "%"}, {"measurement": "% action O (found)", "setting": "[1]; Example B3(a), 6 mg a.i. per liter (ppm)", "value": 17, "unit": "%"}, {"measurement": "% action O (found)", "setting": "[1]; Example B9(a), 2 mg a.i. per liter (ppm)", "value": 18, "unit": "%"}, {"measurement": "% action O (found)", "setting": "[1]; [15]", "value": 75, "unit": "%"}]}, {"compound": "CC(C1CC1)C(O)(Cn1cncn1)c1ccc(Cl)cc1", "note": "(stereo not drawn) [compound IIC, α-(4-chlorophenyl)-α-(1-cyclopropylethyl)-1H-1,2,4-triazole-1-ethanol]", "values": [{"measurement": "% action O (found)", "setting": "Cercospora nicotianae; [16]", "value": 0, "unit": "%"}, {"measurement": "% action O (found)", "setting": "Cercospora nicotianae; [17]", "value": 0, "unit": "%"}, {"measurement": "% action O (found)", "setting": "Erysiphe graminis; Example B8, 6 mg a.i. per liter (ppm)", "value": 17, "unit": "%"}, {"measurement": "% action O (found)", "setting": "Erysiphe graminis; Example B8, 20 mg a.i. per liter (ppm)", "value": 33, "unit": "%"}, {"measurement": "% action O (found)", "setting": "Erysiphe graminis; Example B8, 60 mg a.i. per liter (ppm)", "value": 50, "unit": "%"}]}, {"compound": "CSC(=O)c1cccc2nnsc12", "note": "[compound ID, benzothiadiazole-7-carboxylic acid thiomethyl ester]", "values": [{"measurement": "% action O (found)", "setting": "[2]; Example B9(b), 0.006 mg a.i. per liter (ppm)", "value": 0, "unit": "%"}, {"measurement": "% action O (found)", "setting": "[2]; [11]", "value": 6, "unit": "%"}, {"measurement": "% action O (found)", "setting": "[2]; [12]", "value": 23, "unit": "%"}, {"measurement": "% action O (found)", "setting": "[2]; Example B9(b), 0.2 mg a.i. per liter (ppm)", "value": 36, "unit": "%"}, {"measurement": "% action O (found)", "setting": "Cercospora nicotianae; Example B5, 0.2 mg a.i. per liter (ppm)", "value": 0, "unit": "%"}, {"measurement": "% action O (found)", "setting": "Cercospora nicotianae; [5]", "value": 17, "unit": "%"}, {"measurement": "% action O (found)", "setting": "Cercospora nicotianae; [6]", "value": 55, "unit": "%"}, {"measurement": "% action O (found)", "setting": "Cercospora nicotianae; Example B5, 20 mg a.i. per liter (ppm)", "value": 78, "unit": "%"}, {"measurement": "% action O (found)", "setting": "Cercospora nicotianae; Example B7, 0.2 mg a.i. per liter (ppm)", "value": 0, "unit": "%"}, {"measurement": "% action O (found)", "setting": "Cercospora nicotianae; [16]", "value": 17, "unit": "%"}, {"measurement": "% action O (found)", "setting": "Cercospora nicotianae; [17]", "value": 55, "unit": "%"}, {"measurement": "% action O (found)", "setting": "Cercospora nicotianae; Example B7, 20 mg a.i. per liter (ppm)", "value": 78, "unit": "%"}, {"measurement": "Action on crop yield, % action O (found)", "setting": "[3]; 5 mg a.i. per liter (ppm)", "value": 459, "unit": "%"}, {"measurement": "% action O (found)", "setting": "[1]; Example B9(a), 0.06 mg a.i. per liter (ppm)", "value": 16, "unit": "%"}, {"measurement": "% action O (found)", "setting": "[1]; Example B9(a), 0.2 mg a.i. per liter (ppm)", "value": 22, "unit": "%"}, {"measurement": "% action O (found)", "setting": "[1]; [15]", "value": 60, "unit": "%"}, {"measurement": "% action O (found)", "setting": "Pyricularia oryzae; 6 mg a.i. per liter (ppm)", "value": 15, "unit": "%"}, {"measurement": "% action O (found)", "setting": "Erysiphe graminis; Example B8, 0.6 mg a.i. per liter (ppm)", "value": 0, "unit": "%"}, {"measurement": "% action O (found)", "setting": "Erysiphe graminis; Example B8, 2 mg a.i. per liter (ppm)", "value": 33, "unit": "%"}, {"measurement": "% action O (found)", "setting": "[4]; Example B10, 5 mg a.i. per liter (ppm)", "value": 76, "unit": "%"}]}, {"compound": "manganese ethylenebis (dithiocarbamate) polymer-zinc complex [compound IIL]", "values": [{"measurement": "Action on crop yield, % action O (found)", "setting": "[3]; 100 mg a.i. per liter (ppm)", "value": 8, "unit": "%"}, {"measurement": "% action O (found)", "setting": "[4]; Example B10, 100 mg a.i. per liter (ppm)", "value": 8, "unit": "%"}]}, {"compound": "O=C(O)c1cccc2nnsc12", "note": "[compound IA, benzothiadiazole-7-carboxylic acid]", "values": [{"measurement": "% action O (found)", "setting": "[2]; Example B3(b), 0.006 mg a.i. per liter (ppm)", "value": 0, "unit": "%"}, {"measurement": "% action O (found)", "setting": "[2]; Example B3(b), 0.02 mg a.i. per liter (ppm)", "value": 40, "unit": "%"}, {"measurement": "% action O (found)", "setting": "[2]; Example B3(b), 0.06 mg a.i. per liter (ppm)", "value": 49, "unit": "%"}, {"measurement": "% action O (found)", "setting": "[2]; [10]", "value": 91, "unit": "%"}, {"measurement": "% action O (found)", "setting": "[1]; [13]", "value": 0, "unit": "%"}, {"measurement": "% action O (found)", "setting": "[1]; [14]", "value": 5, "unit": "%"}, {"measurement": "% action O (found)", "setting": "[1]; Example B3(a), 2 mg a.i. per liter (ppm)", "value": 22, "unit": "%"}, {"measurement": "% action O (found)", "setting": "[1]; Example B4, 0.2 mg a.i. per liter (ppm)", "value": 3, "unit": "%"}, {"measurement": "% action O (found)", "setting": "[1]; Example B4, 0.6 mg a.i. per liter (ppm)", "value": 51, "unit": "%"}, {"measurement": "% action O (found)", "setting": "Erysiphe graminis; [7]", "value": 0, "unit": "%"}, {"measurement": "% action O (found)", "setting": "Erysiphe graminis; [8]", "value": 40, "unit": "%"}, {"measurement": "% action O (found)", "setting": "Erysiphe graminis; [9]", "value": 89, "unit": "%"}, {"measurement": "% action O (found)", "setting": "Erysiphe graminis; Example B2, 0.6 mg a.i. per liter (ppm)", "value": 14, "unit": "%"}, {"measurement": "% action O (found)", "setting": "Erysiphe graminis; Example B2, 2 mg a.i. per liter (ppm)", "value": 27, "unit": "%"}]}]}
